Where two headings read alike, the source gives them in different places.
Tests used:
[1] = molecular target: T1, Discoidin Domain Receptor Tyrosine Kinase 2 (DDR2) (Homo sapiens, UniProt Q16832); test: Kinase profiling (KINOMEscan / SelectScreen), DDR2; type: biochemical; conditions: ATP equal to Km
T1 sequence (Q16832 22-855): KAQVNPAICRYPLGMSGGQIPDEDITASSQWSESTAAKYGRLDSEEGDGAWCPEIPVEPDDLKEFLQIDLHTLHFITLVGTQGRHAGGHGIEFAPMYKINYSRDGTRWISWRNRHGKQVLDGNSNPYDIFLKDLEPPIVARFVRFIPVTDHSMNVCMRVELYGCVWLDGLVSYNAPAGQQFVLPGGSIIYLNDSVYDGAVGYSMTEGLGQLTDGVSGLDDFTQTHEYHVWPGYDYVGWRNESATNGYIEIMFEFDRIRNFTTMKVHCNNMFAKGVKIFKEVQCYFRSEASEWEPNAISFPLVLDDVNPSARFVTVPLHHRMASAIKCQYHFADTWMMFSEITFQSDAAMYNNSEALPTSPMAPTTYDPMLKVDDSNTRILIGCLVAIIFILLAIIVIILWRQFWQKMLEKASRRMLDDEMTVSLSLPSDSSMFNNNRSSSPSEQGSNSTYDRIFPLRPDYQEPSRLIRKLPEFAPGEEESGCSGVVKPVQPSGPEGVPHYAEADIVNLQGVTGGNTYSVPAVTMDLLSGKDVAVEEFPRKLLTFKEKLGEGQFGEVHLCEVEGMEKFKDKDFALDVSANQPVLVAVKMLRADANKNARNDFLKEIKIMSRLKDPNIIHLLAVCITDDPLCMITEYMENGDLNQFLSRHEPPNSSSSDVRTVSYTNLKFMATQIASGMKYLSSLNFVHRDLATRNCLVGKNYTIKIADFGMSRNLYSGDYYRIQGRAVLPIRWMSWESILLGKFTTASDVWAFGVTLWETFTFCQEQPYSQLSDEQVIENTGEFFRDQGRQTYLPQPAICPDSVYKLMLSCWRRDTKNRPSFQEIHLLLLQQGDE
Experimental: Effect of CT-179 on protein kinase activity was evaluated using the Thermofisher Scientific SelectScreen Kinase Profiling Service. Over 400 human protein kinases were tested in the presence of 1 μM final concentration of CT-179 at an ATP concentration equal to the known ATP Km for each kinase. The experiment was done by Curtana Pharmaceuticals. Data is presented as percentage of inhibition of enzyme activity. Software CORAL was used to make the kinome tree, which is available from: http://phanstiel-lab.med.unc.edu/CORAL/.

[2] = G-Smo GEM model of SHH-MB: tolerability, pharmacodynamics, survival; type: in vivo, mice; conditions: mouse, in vivo, ip, read-out: maximum tolerated dose (MTD)
Experimental: (§1) Medulloblastoma-bearing mice were maintained at UNC in accordance with UNC IACUC protocols 19–098 and 21–011 and at QIMR under protocol 1572 and 2324. Specimens were examined by a neuropathologist to verify tumor type and grade.
(§2) Post-natal P10 G-Smo mice were injected IP with CT-179 (80 mg/kg), or POx-Palbo (25 mg/kg, every day from P10 to P13), or combination (CT-179 + POx-Palbo, EOD from P14) or saline control solution and tumors were harvested after 6 or 24 hours. EdU (40 mg/kg) was administered IP 30 minutes before harvest. Tumors were dissociated using the Worthington Papain Dissociation System Kit, then fixed for 15 minutes on ice and washed with FACS Wash buffer (2% FBS in PBS). Fixed cells were stained with fluorophore markers for DNA (FX Cycle stain, Thermo Fisher Scientific), EdU (Click-it Edu Kit, Thermo Fisher Scientific), and phospho-RB content (phospho-RB^Ser807/811, Cell Signalling Technology) as previously described. Stained cells were resuspended in sheath fluid and ran on LSR II flow cytometer for 50000 events at the UNC Flow Cytometry core, using appropriate compensation controls and analyzed using FlowJo® software (Tree Star).
(§3) Brains including tumors from G-Smo mice were harvested, fixed in 4% paraformaldehyde for 48 hours, and embedded in paraffin at the UNC Centre for Gastrointestinal Biology and Disease Histology core. Sections were deparaffinised, and antigen retrieval was performed using a low-pH citric acid-based buffer. Staining was performed and stained slides were digitally scanned using the Leica Biosystems Aperio ImageScope software (12.3.3) by the UNC Translational Pathology Laboratory, as in prior studies. The primary antibodies used were anti-NeuN (Cell Signalling Technology) anti-OLIG2 (Cell Marque) and anti-SOX10 (Cell Signalling Technology) and anti-cleaved caspase-3 (Biocare).
(§4) In vitro experiments - all data represent the means ± standard deviation (SD) or standard error of the mean (SEM) as indicated. Where appropriate, two-tailed Student’s t-test or ANOVA were used to determine the probability of difference (*p < 0.05, ** p < 0.01, ***p < 0.001). In vivo experiments - the log-rank (Mantel-Cox) test was used to determine the survival significance of survival differences between treatment groups (*p < 0.05, ** p < 0.01, ***p < 0.001). Kaplan-Meier survival curves were generated using GraphPad Prism v. 7.0 software (GraphPad software).

[3] = tested on: SHH-MB in Gfap-Cre/SmoM2 (G-Smo) mice; test: as above; type: in vivo
Experimental: as §1, §2, §3, §4

[4] = 80 mg/kg at P10, P12, P14 and P16, 24 hours after last dose

Work on Cc1cc(NCCCN(C)C)nc(NC(=O)Nc2ccc(Cl)c(Cl)c2)n1 [CT-179] yielded an inhibition at 1 µM [1] of 80%, an MTD ([2]; EOD) of 80 mg/kg and an MTD ([2]; every three days) of 100 mg/kg. For the same molecule, the “p-OLIG2 in tumors, western blot” value [3, 4] was “decreased p-OLIG2”, the “p-RB in tumors, western blot” value [3, 4] was “reduced p-RB” and the EFS versus control ([3]; IP 80 mg/kg EOD, 80 mg/kg every three days, or 100 mg/kg every three days, from P10) was “significantly improved EFS”. For the same molecule, the “BLI signal in G-Smo Gli-luc mice” value ([3]; administered every three days) was “dose-dependent decrease in BLI signal”.
